Data taken from PubChem BioAssay (NCI).
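GI50 = concentration required for 50% inhibition of growth. TGI denotes the concentration required for complete inhibition of growth.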

Key:
Assay in all cases: NCI tumour cell line growth inhibition, 384-well format
[1] = tested on: NCI-H522 lung
[2] = tested on: CCRF-CEM leukemia
[3] = tested on: SK-MEL-28 melanoma
[4] = tested on: 786-0 renal
[5] = tested on: SK-MEL-5 melanoma
[6] = tested on: RPMI-8226 leukemia
[7] = tested on: SF-268 CNS
[8] = tested on: A498 renal
[9] = tested on: LOX IMVI melanoma
[10] = tested on: TK-10 renal
[11] = tested on: MOLT-4 leukemia
[12] = tested on: ACHN renal
[13] = tested on: SF-295 CNS
[14] = tested on: NCI-H460 NSCLC
[15] = tested on: UACC-257 melanoma
[16] = tested on: U251 glioblastoma
[17] = tested on: HL-60(TB) leukemia
[18] = tested on: EKVX NSCLC
[19] = tested on: OVCAR-8 ovarian
[20] = tested on: COLO 205 colon
[21] = tested on: NCI-H322M lung
[22] = tested on: KM12 colon
[23] = tested on: T-47D breast
[24] = tested on: SK-MEL-2 melanoma
[25] = tested on: BT-549 breast
[26] = tested on: UACC-62 melanoma
[27] = tested on: OVCAR-4 ovarian
[28] = tested on: MALME-3M melanoma
[29] = tested on: HOP-62 NSCLC
[30] = tested on: SN12C renal
[31] = tested on: MCF7 breast
[32] = tested on: PC-3 prostate
[33] = tested on: SNB-75 CNS
[34] = tested on: M14 melanoma
[35] = tested on: SK-OV-3 ovarian
[36] = tested on: MDA-MB-435 melanoma
[37] = tested on: OVCAR-5 ovarian
[38] = tested on: DU-145 prostate
[39] = tested on: OVCAR-3 ovarian
[40] = tested on: HS 578T breast
[41] = tested on: SF-539 CNS
[42] = tested on: SW-620 colon
[43] = tested on: HCT-15 colon
[44] = tested on: MDA-MB-231 breast
[45] = tested on: HCC-2998 colon
[46] = tested on: HT29 colon
[47] = tested on: NCI-H23 lung
[48] = tested on: RXF 393 renal
[49] = tested on: NCI/ADR-RES ovarian

C[C@@H](Oc1ccc2[nH]nc(/C=C/c3cnn(CCO)c3)c2c1)c1c(Cl)cncc1Cl
GI50 [1]: 0.031 µM | TGI [1]: 0.554 µM | GI50 [2]: 0.0255 µM | TGI [2]: 0.0605 µM | GI50 [3]: 1.31 µM | TGI [3]: 2.63 µM | GI50 [4]: 0.214 µM | TGI [4]: 1.2 µM | GI50 [5]: 0.51 µM | TGI [5]: 1.92 µM | GI50 [6]: 0.0343 µM | TGI [6]: 1.33 µM | GI50 [7]: 0.124 µM | TGI [7]: 0.384 µM | GI50 [8]: 0.171 µM | TGI [8]: > 100 µM | GI50 [9]: 0.07 µM | TGI [9]: 0.199 µM | GI50 [10]: 0.0986 µM | TGI [10]: 0.606 µM | GI50 [11]: 0.0195 µM | TGI [11]: 0.0488 µM | GI50 [12]: 0.0858 µM | TGI [12]: > 100 µM | GI50 [13]: 0.0711 µM | TGI [13]: 2.06 µM | GI50 [14]: 0.037 µM | TGI [14]: 1.09 µM | GI50 [15]: 1.15 µM | TGI [15]: 2.53 µM | GI50 [16]: 0.156 µM | TGI [16]: 0.766 µM | GI50 [17]: 0.0317 µM | TGI [17]: 0.131 µM | GI50 [18]: 0.0368 µM | TGI [18]: 0.757 µM | GI50 [19]: 0.174 µM | TGI [19]: 1.45 µM | GI50 [20]: 0.0248 µM | TGI [20]: 0.105 µM | GI50 [21]: 0.331 µM | TGI [21]: 2.48 µM | GI50 [22]: < 0.01 µM | TGI [22]: 0.145 µM | GI50 [23]: 0.263 µM | TGI [23]: > 100 µM | GI50 [24]: 0.606 µM | TGI [24]: 2.13 µM | GI50 [25]: 0.0612 µM | TGI [25]: 0.229 µM | GI50 [26]: 1.29 µM | TGI [26]: 2.59 µM | GI50 [27]: 1.5 µM | TGI [27]: 4.75 µM | GI50 [28]: 1.12 µM | TGI [28]: 2.34 µM | GI50 [29]: 0.082 µM | TGI [29]: 1.08 µM | GI50 [30]: 0.0477 µM | TGI [30]: 0.343 µM | GI50 [31]: 0.0463 µM | TGI [31]: 1.6 µM | GI50 [32]: 1.28 µM | TGI [32]: > 100 µM | GI50 [33]: 0.0234 µM | TGI [33]: 0.213 µM | GI50 [34]: 0.331 µM | TGI [34]: 2.04 µM | GI50 [35]: 0.114 µM | GI50 [36]: 1.14 µM | TGI [36]: 2.5 µM | GI50 [37]: 0.111 µM | TGI [37]: 0.475 µM | GI50 [38]: 0.0972 µM | TGI [38]: 0.755 µM | GI50 [39]: 0.0745 µM | TGI [39]: 1.57 µM | GI50 [40]: 0.0297 µM | TGI [40]: 0.229 µM | GI50 [41]: 0.0237 µM | TGI [41]: 0.154 µM | GI50 [42]: 0.0605 µM | TGI [42]: 0.469 µM | GI50 [43]: 0.117 µM | TGI [43]: 1.25 µM | GI50 [44]: 0.161 µM | TGI [44]: 3.45 µM | GI50 [45]: 0.399 µM | TGI [45]: 2.12 µM | GI50 [46]: 0.278 µM | TGI [46]: > 100 µM | GI50 [47]: 0.0433 µM | TGI [47]: 0.333 µM | GI50 [48]: 0.0544 µM | TGI [48]: 0.23 µM | GI50 [49]: 0.227 µM | TGI [49]: 1.41 µM
